Experimental data from patent US20260256922A1, “PRODRUGS USEFUL FOR REDUCING ANTHRACYCLINE CARDIOTOXICITY” (WAKE FOREST UNIVERSITY HEALTH SCIENCES, priority 2022, published 2026).

Tests used:
Nrf2 = Nrf2 and HO-1 immunoblots in H9C2 cells; assay type: cell-based, rat; conditions: H9C2, relative to DMSO vehicle
From the text: The bar graphs below represent the mean±SEM. Results were statistically different between c1 and DOX in both cases (p=0.002 and p=0.019), and more marginally so between c1 and DMSO (p=0.011 and p.=0.025), for Nrf2 and HO-1, respectively.

H9C2 cardiomyoblasts [1] = conditions: H9C2, 10 and 20 μM, 24 or 48 h; difference not significant at 48 h
Experimental: Cytotoxicity of DOX and prodrugs in H9C2 cardiomyoblasts. Media from cells exposed for 24 or 48 h to 10 or 20 µM of c1, c2, DOX or vehicle (DMSO, final concentration 0.1% in all samples) was centrifuged to remove cells and cell debris, and supernatants were assessed spectrophotometrically by lactose dehydrogenase (LDH) assay to evaluate release into the media as a measure of cytotoxicity (n=6 or more). *, p<0.05; **, p<0.01; ***, p<0.001; ****, p<0.0001.
Cytotoxicity of c1, c2 and DOX was evaluated by measuring the release of lactate dehydrogenase (LDH) into the culture medium over time.
H9C2 and 4T1 cells were plated at a density of 10,000 per well in 96-well plates. Twenty-four h after plating, cells were treated with 10 or 20 µM DOX (from 20 mM stock dissolved in DMSO, for 0.1% final DMSO) and were incubated for 24 or 48 h. The extracellular medium was centrifuged at 12,000×g for 5 min to pellet cellular debris, and the supernatants were assessed for release of lactate dehydrogenase (LDH) using a colorimetric activity assay (Invitrogen) as directed and spectral detection (Benchmark or BioRad microplate reader). Values were used to determine % cytotoxicity as described in the kit, using treatment with lysis buffer to release all LDH into the medium (defining 100% release) or cells without treatment (to define 0% release).

caspase-3 = test: Caspase-3 cleavage immunoblot in H9C2 cells; conditions: H9C2, 10 or 20 μM, 24 h
Experimental: FIG. 6. […] H9C2 cells in culture were treated for 24 hr with c1, c2, DOX or vehicle (DMSO), then harvested into lysis buffer and immunoblotted for caspase-3. Data analyzed by ImageJ were used to assess the percent of the two bands present as the lower band.
We next evaluated apoptotic signaling through caspase-3 cleavage at 24 h to compare the experimental compounds.
To evaluate levels of caspase cleavage (using an antibody recognizing both cleaved and uncleaved, Cell Signaling, cat #9662), Nrf2 (antibody from Thermo Fisher, cat #PA5-27882), and HO-1 (antibody from Proteintech, cat #10701-1-AP), H9C2 cells were plated at a density of 450,000 per well in a 24-well plate, then treated 24 h later with 10 or 20 µM DOX and incubated another 24 h before harvesting. For some samples, 100 mM hydroxocobalamin (HO-Cbl) was added 5 min before drug treatment. Cells were harvested by removing media (and recovering any non-adherent cells by centrifugation for 5 min at 10,600×g, discarding the supernatant), and combining that with the 120 μL of lysis buffer added to each well. Lysis buffer [50 mM Tris-HCl at pH 8.0, with 100 mM NaCl, 100 µM diethylene triamine pentaacetic acid (DTPA), 20 mM β-glycerophosphate, 0.1% SDS, 0.5% Na Desoxycholate, and 0.5% Triton-X-100] was prepared by freshly adding protease and phosphatase inhibitors before use (1 mM PMSF, 10 μg/mL aprotinin, 1 mM Na3VO4, 10 mM NaF and 10 μg/mL leupeptin). Samples were further incubated on ice for 30 min, then centrifuged at high speed (20,800×g for 10 min) to remove cell debris, and supernatants were mixed with 5×SDS protein sample buffer for Western blot analysis following resolution of 40 μg per sample on 10% SDS-polyacrylamide gels. Protein concentrations of supernatants were determined using a BCA assay (Pierce). Antibodies were used at dilutions of 1:1000 (for HO-1 and caspase-3) or 1:3000 (for Nrf2).

H9C2 cardiomyoblasts [2] = test: Uptake into H9C2 cardiomyoblasts by live-cell confocal microscopy; assay type: cell-based, rat; conditions: imaging over 18 h
Experimental: FIG. 4. Uptake of DOX and prodrugs c1 and c2 by H9C2 cardiomyoblasts. H9C2 cells cultures grown overnight on chambered coverslips in media with 10% serum were switched to Fluorobrite DMEM imaging media supplemented with 5% serum and prepared for live-cell imaging on a Zeiss LSM 880 confocal microscope, then 10 µM of c1, c2, or DOX was added and images were taken every 10 min (averaged every 30 min) for 18 h. Approximately 20 cells present in each field of view were averaged for each sample and time point; normalized and averaged data from two replicates each±SEM were included for c1 and DOX. An earlier independent trial yielded very similar results (Fig. S1).
Uptake of DOX and prodrugs into H9C2 cardiomyoblasts. Before comparing the biological effects of treatments by DOX and prodrugs, it was important to know their time dependence of accumulation into the H9C2 cardiomyoblasts under investigation. For this, confocal microscopy of live cells in culture was used to track in real time the accumulation of the fluorescent molecules into the cells, allowing direct comparisons between c1, c2 and Dox. […] Thus, any biological effects observed using c1 rather than DOX will not be due to limited cellular uptake.
To evaluate drug uptake, H9C2 cells were plated at a density of 20,000 per well on 24 well #1.5 polymer chambered coverslips (Ibidi) in media including 10% FBS and allowed to adhere for ~20 h. Prior to imaging analysis, the media was replaced with Fluorobrite DMEM imaging media (Gibco) supplemented with 5% FBS. To 1 mL of media in each well was added either vehicle (DMSO), or a 20 mM stock solution of c1, c2, or DOX to give final concentrations of 10 or 20 µM drug and 0.1% DMSO. […] DOX and the prodrugs were detected with excitation by a 458 nm laser at 0.3% and emission from 535-648 nm.
Each position consisted of a 3 slice z-stack that was compressed with a maximum intensity projection for analysis. […] The mean intensity for both channels was calculated, normalized, and then averaged to 30 min time points.

[3] = Time-dependent DOX release from prodrugs in presence of H2O2 (LCMS); assay type: physicochemical; conditions: prodrug 10 μM, H2O2 10 μM, ammonium bicarbonate buffer 0.1 M pH 7.4
Experimental: FIG. 1. Time-course for DOX release from prodrugs (10 μM) in ammonium bicarbonate buffer (0.1 M, pH 7.4) at room temperature and in the presence of H2O2 (10 μM). A calibration curve was used to determine the concentration of free DOX at each time point by LCMS. Plotted as the mean±standard error of the mean (SEM) from three independent experiments.
To confirm this reactivity, we incubated c1 (10 μM) with H2O2 (10 μM) at room temperature in ammonium bicarbonate buffer (0.1 M, pH 7.4). At various time points, an aliquot was removed and analyzed by LCMS. Using a calibration curve, we determined the percentage of released DOX over the course of two hours. […] For comparison, we also assessed the reactivity of c2 towards the same concentration of peroxides. Like c1, c2 also functioned as an H2O2-activated DOX prodrug, but with faster kinetics, as quantitative release of free DOX was realized within 60 min.
A stock solution of c1 (or c2, 10 mM) in DMSO and H2O2 (10 mM) in ammonium bicarbonate buffer (0.1M, pH 7.4) were prepared immediately prior to use. […] At various time points (0 min, 10 min, 35 min, 60 min, 80 min, 100 min, 120 min), a 1 mL (inject volume 60 μL) aliquot was removed and analyzed by LC-MS (using a C18 analytical column and eluting at 0.4 mL/min with a linear gradient (20-90% v/v) MeOH/H2O (0-2 min), followed by 90% v/v MeOH/H2O (2-19 min)). […]

Structure (SMILES) | HO-1 expression (immunoblot) (Nrf2) | cytotoxicity (LDH release) (H9C2 cardiomyoblasts [1]) | caspase-3 cleavage (caspase-3) | accumulation in cells compared with DOX (H9C2 cardiomyoblasts [2]) | time to quantitative release of free DOX [3] [min]
COc1cccc2c1C(=O)c1c(O)c3c(c(O)c1C2=O)C[C@@](O)(C(=O)CO)C[C@@H]3O[C@H]1C[C@H](N)[C@H](O)[C@H](C)O1 [DOX, Doxorubicin, reference compound] | completely suppressed both | more toxic than c1 |  |  | 
COc1cccc2c1C(=O)c1c(O)c3c(c(O)c1C2=O)C[C@@](O)(C(=O)CO)C[C@@H]3O[C@H]1C[C@H](NC(=O)OCc2ccc(B3OC(C)(C)C(C)(C)O3)cc2)[C@H](O)[C@H](C)O1 [c2] |  | intermediate toxicity but more similar to DOX than c1 | neither c1 nor c2 at either 10 or 20 UM caused notable caspase-3 cleavage | as slow as or slower than Dox | ≤ 60
